Test results from patent US4250259A, “Microbiological production of ketones from C3 -C6 secondary alcohols” (priority 1979, dated 1981).
Read-outs that look alike come from different tables or passages of the source.

Experiments:
[1] = system: purified secondary alcohol dehydrogenase; experiment: substrate specificity, electron acceptor and stoichiometry of purified yeast SADH; conditions: for oxidation by the purified yeast secondary alcohol dehydrogenase: examined spectrophotometrically
[2] = system: cell suspensions of C1-utilizers; experiment: studies on production of 2-butanone from 2-butanol by cell suspensions of the strains tested; format: cell-based; conditions: for inhibition of production of 2-butanone from 2-butanol by cell suspensions: strains tested
Source text: The following summarizes tests conducted on the optimal conditions for the production of methyl ketones from C3 -C6 sec. alcohols.
The substrate specificity for the oxidation of C3 -C6 secondary alcohols by the strains of C1 -utilizers was studied.

[3] = system: purified secondary alcohol dehydrogenase (SADH); experiment: inhibition of purified SADH by metal-chelating agents, thioreagents, metals; format: biochemical, Pseudomonas sp. ATCC 21439
Procedure: Secondary alcohol dehydrogenase (SADH) from an obligate methanol utilizer, Pseudomonas sp. ATCC 21439 was purified as follows. […] 0.05 M sodium phosphate buffer, pH 7.0 with 0.5 mM dithiothretol (buffer A) and were disrupted sonically (5×1 min.). The crude extract was separated by centrifugation. The crude extract was heat-treated at 50° C. in a water bath for 10 minutes. The resulting precipitate was removed by centrifugation. To the supernatant solution, 25 ml of protamine sulfate solution (2% solution in 0.1 M Tris base) was added dropwise with continuous stirring. After standing for 30 minutes, the extract was centrifuged. The supernatant solution was fractionated with solid ammonium sulfate. […] This DEAE-cellulose eluate was concentrated by ammonium sulfate fractionation. Material precipitating between 30 and 50% ammonium sulfate saturation was collected by centrifugation and dialyzed overnight against A. This fraction was further washed and filtered through an Amicon unit with XM 50 membrane. The concentrated fraction (6 ml) inside the Amicon unit was applied to an Affi-Gel Blue column (0.8 cm×18 cm) which had been equilibrated with buffer A for affinity chromatography. The column was washed overnight with buffer A (0.18 ml./min.) and then was eluted with buffer A containing 5 mM NAD. Each 1 ml. fraction was collected.
The purified secondary alcohol dehydrogenase enzyme (SADH) may be used directly for converting C3 -C6 secondary alcohols to the corresponding methyl ketones by the procedures described above; however, a source of NAD^+ must be added to the reaction medium. One can determine the NAD-linked secondary alcohol dehydrogenase activity with a fluorescence spectrophotometer (Perkin Elmer, Model MPF 44A) by following the formation of reduced NAD (Ex 340 nm, Em 460 nm). The assay system (3 ml.) will typically contain: sodium phosphate buffer pH 7.0, 150 μmol; NAD 1.0 μmol; a given amount of enzyme preparation; and 20 μmol secondary alcohol. The reaction is started by the addition of secondary alcohol. One unit of SADH enzyme activity represents the reduction of one nmole NAD per minute.
The effect of metal-chelating agents and thioreagents on the activity of the purified SADH enzyme were studied. […] The possibility of ethanol or n-propanol as an inhibitor was studied.

[4] = system: cell-free particulate fractions of methane-grown methylotrophs; experiment: inhibitors and electron donors of n-alkane conversion to sec. alcohols by cell-free particulate fractions; format: biochemical
Source text: The conditions for preparing the cell suspensions or the cell-free particulate fractions from methane-grown methylotroph microorganisms is the same as described above.

[5] = system: Methylococcus capsulatus CRL M1 NRRL B-11,219; experiment: conversion of n-alkanes to oxidation products by cell suspensions (Table XVIII); format: cell-based; conditions: methane-grown cell suspension, pH 7.0
Procedure: (§1) ^(a) Cell-suspensions of methanegrown methylotroph microorganisms
(§2) indicated in 0.15 M phosphate buffer, pH 7.0 incubated in the alkanes as
(§3) indicated at 3° C. The oxidation products were determined by g.l.c

[6] = system: Methylosinus trichosporium OB3b NRRL B-11,196; experiment: as above; format: cell-based; conditions: methane-grown cell suspension, pH 7.0
Procedure: as §1, §2, §3

cell-free SADH system = experiment: cofactor requirement of the cell-free SADH systems; format: biochemical; conditions: cell-free systems tested
Procedure: To prepare the cell-free secondary alcohol dehydrogenase (SADH) system, the washed cells were disrupted with a Wave Energy Ultrasonic Oscillator, Model W201 (Wave Energy System, Inc., Newtown, Pa.) and centrifuged at 20,000×g. for 30 minutes. […] The enzyme activity was measured with a fluorescence spectrophotometer (Perkin Elmer, Model MPF 44A) by following the formation of reduced NAD (EX 340 nm, Em 460 nm). The formation of reduced NAD was also followed with an absorption spectrophotometer at 340 nm. The assay system (3 ml.) contained: potassium phosphate buffer pH 7.0; 150 μmol.; NAD 1 μmol.; a given amount of enzyme preparation; and secondary alcohol 10 μmol. The reaction was started by the addition of substrate. One unit of enzyme activity represents the reduction of one μmole NAD per minute. Protein concentrations were determined by the Lowry method (J. Biol. Chem., 193: 255-275 (1951)).

[7] = system: purified secondary alcohol dehydrogenase (SADH); experiment: substrate specificity and Michaelis constants of purified SADH; format: biochemical, Pseudomonas sp. ATCC 21439
[8] = each inhibitor at a final concentration of 1 mM, measured spectrofluorometrically

## CC(O)CO (stereo not drawn) [1,2-propandiol]
[1]
  oxidation by the purified yeast secondary alcohol dehydrogenase: not oxidized

## CCCCCC(C)O (stereo not drawn) [2-heptanol]
[2]; cell suspensions
  rate of oxidation of secondary alcohols by strains of C1-utilizers: much slower rate
[1]
  oxidation by the purified yeast secondary alcohol dehydrogenase: not oxidized

## CCCCCCC(C)O (stereo not drawn) [2-octanol]
[1]
  oxidation by the purified yeast secondary alcohol dehydrogenase: not oxidized

## O=C(O)c1cc(SSc2ccc([N+](=O)[O-])c(C(=O)O)c2)ccc1[N+](=O)[O-] [5,5'-dithiobis(2-nitrobenzoic acid)]
[3]
  inhibition of SADH activity: inhibited
[3]; [8]
  % inhibition of SADH activity: 100%

## Oc1cccc2cccnc12 [8-hydroxyquinoline]
[4]
  inhibition of conversion of n-alkanes to sec. alcohols (words): inhibited

## [Co+2] [Co^++]
[3]; [8]
  % inhibition of SADH activity: 0%

## O=C(O)CN(CCN(CC(=O)O)CC(=O)O)CC(=O)O [EDTA]
[3]
  % inhibition of SADH activity: 63%

## CC [Ethane]
[5]
  Conversion Rate, product Ethanol: 2.0 μmoles/hr./mg./protein
[6]
  Conversion Rate, product Ethanol: 1.3 μmoles/hr./mg./protein

## Cc1cc2nc3c(=O)[nH]c(=O)nc-3n(C[C@H](O)[C@H](O)[C@H](O)COP(=O)(O)OP(=O)(O)OC[C@H]3O[C@@H](n4cnc5c(N)ncnc54)[C@H](O)[C@@H]3O)c2cc1C [FAD, flavin adenine dinucleotide, reference compound]
[1]
  ability to act as electron acceptor/carrier for the purified enzyme: could not act as electron carrier
cell-free SADH system
  effectiveness as cofactor for oxidation of 2-butanol / C3-C6 secondary alcohols: not effective

## C [Methane]
[5]; […] phosphate buffer
  Conversion Rate, product Methanol: 2.5 μmoles/hr./mg./protein
[6]; […] phosphate buffer
  Conversion Rate, product Methanol: 1.5 μmoles/hr./mg./protein

## [Mg+2] [Mg^++]
[3]; [8]
  % inhibition of SADH activity: 0%

## [Mn+2] [Mn^++]
[3]; [8]
  % inhibition of SADH activity: 0%

## CCN1C(=O)C=CC1=O [N-ethylmalemide, N-ethylmaleimide]
[3]
  inhibition of SADH activity: not inhibited
[3]; [8]
  % inhibition of SADH activity: 6%

## NC(=O)C1=CN([C@@H]2O[C@H](COP(=O)(O)OP(=O)(O)OC[C@H]3O[C@@H](n4cnc5c(N)ncnc54)[C@H](OP(=O)(O)O)[C@@H]3O)[C@@H](O)[C@H]2O)C=CC1 [NAD(P)H]
cell-free SADH system
  effectiveness as cofactor for oxidation of 2-butanol / C3-C6 secondary alcohols: not effective

## NC(=O)C1=CN([C@@H]2O[C@H](COP(=O)(O)OP(=O)(O)OC[C@H]3O[C@@H](n4cnc5c(N)ncnc54)[C@H](O)[C@@H]3O)[C@@H](O)[C@H]2O)C=CC1 [NADH, reduced nicotinamide adenine dinucleotide]
[4]
  use as electron donor for hydroxylation of n-alkanes: requires

## NC(=O)c1ccc[n+]([C@@H]2O[C@H](COP(=O)(O)OP(=O)(O)OC[C@H]3O[C@@H](n4cnc5c(N)ncnc54)[C@H](OP(=O)(O)O)[C@@H]3O)[C@@H](O)[C@H]2O)c1 [NADP, reference compound]
[1]
  ability to act as electron acceptor/carrier for the purified enzyme: could not act as electron carrier
cell-free SADH system
  effectiveness as cofactor for oxidation of 2-butanol / C3-C6 secondary alcohols: not effective

## NC(=O)C1=CN([C@@H]2O[C@H](COP(=O)(O)OP(=O)(O)OC[C@H]3O[C@@H](n4cnc5c(N)ncnc54)[C@H](OP(=O)(O)O)[C@@H]3O)[C@@H](O)[C@H]2O)C=CC1 [NADPH, reduced nicotinamide adenine dinucleotide phosphate]
[4]
  use as electron donor for hydroxylation of n-alkanes: could also be utilized as an electron donor

## [N-]=[N+]=[N-] [Sodium azide]
[3]; [8]
  % inhibition of SADH activity: 10%

## NC(N)=S [Thiourea]
[2]
  inhibition of production of 2-butanone from 2-butanol by cell suspensions: not inhibited
[3]
  inhibition of SADH activity: not inhibited
[3]; [8]
  % inhibition of SADH activity: 0%
[4]
  inhibition of conversion of n-alkanes to sec. alcohols (words): inhibited

## [Zn+2] [Zn^++]
[3]; addition of exogenous zinc
  stimulation of SADH activity: did not stimulate
[3]; [8]
  % inhibition of SADH activity: 0%

## CC=O [acetaldehyde]
[7]
  oxidation by purified SADH: lower rate

## O=Cc1ccccc1 [benzaldehyde]
[7]
  oxidation by purified SADH: not oxidized

## CCCCO [butan-1-ol]
[1]
  oxidation by the purified yeast secondary alcohol dehydrogenase: not oxidized

## CCC(O)CO (stereo not drawn) [butane 1,2-diol]
[7]
  oxidation by purified SADH: not oxidized
[1]
  oxidation by the purified yeast secondary alcohol dehydrogenase: not oxidized

## CC(O)CCO (stereo not drawn) [butane 1,3-diol]
[7]
  oxidation by purified SADH: lower rate
[1]
  oxidation by the purified yeast secondary alcohol dehydrogenase: not oxidized

## CC(O)C(C)O (stereo not drawn) [butane 2,3-diol]
[7]
  oxidation by purified SADH: lower rate

## [Cu+2] [cupric]
[3]; [8]
  % inhibition of SADH activity: 25%

## OC1CCCCC1 [cyclohexanol]
[7]
  oxidation by purified SADH: lower rate

## O=C1C(Cl)=CC(=Nc2ccc(O)cc2)C=C1Cl [dichlorophenol indophenol, 2,6-dichlorophenol indophenol, reference compound]
[1]
  ability to act as electron acceptor/carrier for the purified enzyme: could not act as electron carrier
cell-free SADH system
  effectiveness as cofactor for oxidation of 2-butanol / C3-C6 secondary alcohols: not effective

## CCO [ethanol]
[3]
  inhibition of SADH activity: did not inhibit
[1]
  oxidation by the purified yeast secondary alcohol dehydrogenase: not oxidized

## [Fe+3] [ferric]
[3]; [8]
  % inhibition of SADH activity: 35%

## [Fe+2] [ferrous]
[3]; [8]
  % inhibition of SADH activity: 50%

## C=O [formaldehyde]
[7]
  oxidation by purified SADH: not oxidized

## O=C(O)CI [iodoacetic acid]
[3]
  % inhibition of SADH activity: 0%
  inhibition of SADH activity: not inhibited

## CC(C)CO [isobutanol]
[7]
  oxidation by purified SADH: not oxidized

## CO [methanol]
[1]
  oxidation by the purified yeast secondary alcohol dehydrogenase: not oxidized

## CCCO [n-propanol]
[3]
  inhibition of SADH activity: did not inhibit
[1]
  oxidation by the purified yeast secondary alcohol dehydrogenase: not oxidized

## [Ni+2] [nickel]
[3]; [8]
  % inhibition of SADH activity: 20%

## CCCCCO [pentan-1-ol]
[1]
  oxidation by the purified yeast secondary alcohol dehydrogenase: not oxidized

## C[n+]1c2ccccc2nc2ccccc21 [phenazine methosulfate, reference compound]
[1]
  ability to act as electron acceptor/carrier for the purified enzyme: could not act as electron carrier
cell-free SADH system
  effectiveness as cofactor for oxidation of 2-butanol / C3-C6 secondary alcohols: not effective

## Oc1ccccc1 [phenol]
[7]
  oxidation by purified SADH: not oxidized

## C=CC [propylene]
[4]
  inhibition of conversion of n-alkanes to sec. alcohols (words): inhibited
[4]; listed as Propylene
  inhibition of conversion of n-alkanes to sec. alcohols (words): inhibit

## CCC=O [ropanal]
[7]
  oxidation by purified SADH: lower rate
[7]; 2-butanol = 100%
  relative percent rate of oxidation by SADH: 2%

## O=C(O)CCC(=O)O [succinic acid]
[7]
  oxidation by purified SADH: not oxidized

## NNC(N)=S [thiosemicarbazide]
[4]
  inhibition of conversion of n-alkanes to sec. alcohols (words): inhibited

## c1ccc(-c2ccccn2)nc1 [α,α-bipyridyl]
[2]
  inhibition of production of 2-butanone from 2-butanol by cell suspensions: inhibited
[3]; [8]
  % inhibition of SADH activity: 70%
[4]
  inhibition of conversion of n-alkanes to sec. alcohols (words): inhibited

## cytochrome c [reference compound]
[1]
  ability to act as electron acceptor/carrier for the purified enzyme: could not act as electron carrier
